The text below walks through data of patent US8729068B2, “Tetrahydrobenzothiophene compound” (Astellas Pharma Inc., priority 2010, dated 2014).

With `O=C(O)c1ccc(CCc2ccc(NC(=O)c3c(NC(=O)c4cccc(S(=O)(=O)N(C5CC5)[C@H]5CC[C@@H](C(=O)O)CC5)c4)sc4c3CCCC4)cc2)cc1` [Example 5, 4-{2-[4-({[2-({3-[(cis-4-carboxycyclohexyl)(cyclopropyl)sulfamoyl]benzoyl}amino)-4,5,6,7-tetrahydro-1-benzothiophen-3-yl]carbonyl}amino)phenyl]ethyl}benzoic acid], the melting point came out at 186.8 °C.
